Assay results: US8759519B2, “Mono-hydrochloric salts of an inhibitor of histone deacetylase” (Janssen Pharmaceutica NV, priority 2007, dated 2014)
Where a name gives a salt, the structure may show the parent alone. Read-outs that look alike come from different tables or passages of the source.

Tests used:
Type in all cases: physicochemical
[1] = Aqueous solubility in solvents with different pH; conditions: 20° C., read-out: Solubility (mg/ml solution)
Experimental: Aqueous solubilities of Form I were measured in solvents with different pH. An excess of the solute was equilibrated with the solvent at 20° C. for 24 hours. After removing the undissolved compound, the concentration in solution was determined using UV spectrometry.

[2] = Chemical stability after storage in open conditions (HPLC, visual inspection); conditions: for Appearance / HPLC Sum of impurities: hydrochloride
Experimental: Form I was stored in different open conditions for periods of 1, 4 and 8 weeks.
These conditions are 40° C./75% RH, 50° C., RT/<5% RH, RT/56% RH, RT/75% RH and 0.3 da ICH light.
The compounds were analyzed after storage by HPLC and by visual inspection.
Form II was stored in different open conditions for periods of 1, 4 and 8 weeks. These conditions were 40° C./75% RH, 50° C., RT/<5% RH, RT/56% RH, RT/75% RH and 0.3 da ICH light.

[3] = Adsorption/desorption of water (dynamic vapor sorption); conditions: 25° C., hydrochloride
Experimental: The ADS/DES data were obtained using a SMS dynamic vapor sorption model DVS-1 and the weight change was recorded with tespect to the atmospheric humidity at 25° C. The weight of the samples was about 17 mg of Form I and 24 mg of Form II. The samples were dried for 60 min under dry nitrogen. The equilibrium was lower or equal to 0.01%/min. for minimal 15 min and maximal 60 min. The data interval was 0.05% or 2.0 min.
Relative Humidity (%) measurement points were:
The adsorption and desorption of water at 25° C. at different conditions of relative humidity was investigated on 17 mg Form I.
The weight change as a function of relative humidity was registered.
The adsorption and desorption of water at 25° C. at different conditions of relative humidity was investigated on about 24 mg Form II

[4] = Crystallographic stability after storage in open conditions (TGA, DSC, XRPD, IR); parameters: key to XRD / IR: ~Ref: identical with reference; Cryst.: crystalline; conditions: for IR / XRD: Table E
Experimental: The stability of the crystal structure of Form I was studied after storage of the compound in open conditions for a period of six weeks at room temperature (RT) under <5%, 56% and 75% relative humidity (RH), 50° C. and 40° C./75% RH.
The samples are analyzed with thermogravimetry (TGA), differential scanning calorimetry (DSC), X-ray powder diffraction (XRPD) and infrared spectroscopy (IR).
The stability of the crystal structure of Form II was studied after storage of the compound in open conditions for a period of six weeks at room temperature (RT) under <5%, 56% and 75% relative humidity (RH), 50° C. and 40° C./75% RH.
The samples were analyzed with thermogravimetry (TGA), differential scanning calorimetry (DSC), X-ray powder diffraction (XRPD) and infrared spectroscopy (IR).

[5] = 0 days (reference), hydrochloride
[6] = six weeks open, 40° C./75% RH, hydrochloride
[7] = six weeks open, 50° C., hydrochloride
[8] = six weeks open, RT/56% RH, hydrochloride
[9] = six weeks open, RT/75% RH, hydrochloride
[10] = six weeks open, RT/<5% RH, hydrochloride

Structure (SMILES): Cn1cc(CNCC2CCN(c3ncc(C(=O)NO)cn3)CC2)c2ccccc21 [Form I, N-hydroxy-2-[4-[[[(1-methyl-1H-indol-3-yl)methyl]amino]methyl]-1-piperidinyl]-5-pyrimidinecarboxamide hydrochloride]
- solubility thermodynamic at 24 h ([1]; aqueous buffer, 0.001N HCl (pH 2.9)): 1.5 mg/mL
- solubility thermodynamic at 24 h ([1]; aqueous buffer, 0.01N HCl (pH 2.0)): 1.4 mg/mL
- solubility thermodynamic at 24 h ([1]; aqueous buffer, Buffer pH 2 (citric acid/NaOH/HCl) (pH 2.0)): 0.95 mg/mL
- solubility thermodynamic at 24 h ([1]; aqueous buffer, Buffer pH 4 (citric acid/HCl/NaOH) (pH 3.9)): 1.2 mg/mL
- solubility thermodynamic at 24 h ([1]; aqueous buffer, Buffer pH 6 (citric acid/NaOH) (pH 6.0)): 1.5 mg/mL
- solubility thermodynamic at 24 h ([1]; aqueous buffer, Buffer pH 8 (boric acid/HCl/NaOH) (pH 7.8)): 1.3 mg/mL
- solubility thermodynamic at 24 h ([1]; aqueous buffer, Buffer pH 10 (boric acid/KCl/NaOH) (pH 9.8)): 1.3 mg/mL
- solubility thermodynamic at 24 h ([1]; water (pH 4.5)): 1.4 mg/mL
- Appearance ([2]; 0.3 da ICH light (1 week)): beige-gray
- HPLC Sum of impurities ([2]; 0.3 da ICH light (1 week)): 4.58%
- Appearance ([2]; 40° C./75% RH, 1 week): beige-gray
- HPLC Sum of impurities ([2]; 40° C./75% RH, 1 week): 3.31%
- Appearance ([2]; 40° C./75% RH, 4 weeks): beige-gray
- HPLC Sum of impurities ([2]; 40° C./75% RH, 4 weeks): 3.13%
- Appearance ([2]; 40° C./75% RH, 8 weeks): beige-gray
- HPLC Sum of impurities ([2]; 40° C./75% RH, 8 weeks): 3.59%
- Appearance ([2]; 50° C., 1 week): beige-gray
- HPLC Sum of impurities ([2]; 50° C., 1 week): 3.19%
- Appearance ([2]; 50° C., 4 weeks): beige-gray
- HPLC Sum of impurities ([2]; 50° C., 4 weeks): 3.2%
- Appearance ([2]; 50° C., 8 weeks): beige-gray
- HPLC Sum of impurities ([2]; 50° C., 8 weeks): 3.16%
- Appearance ([2]; RT/56% RH, 4 weeks): beige-gray
- HPLC Sum of impurities ([2]; RT/56% RH, 4 weeks): 3.27%
- Appearance ([2]; RT/56% RH, 8 weeks): beige-gray
- HPLC Sum of impurities ([2]; RT/56% RH, 8 weeks): 3.15%
- Appearance ([2]; RT/75% RH, 4 weeks): beige-gray
- HPLC Sum of impurities ([2]; RT/75% RH, 4 weeks): 3.43%
- Appearance ([2]; RT/75% RH, 8 weeks): beige-gray
- HPLC Sum of impurities ([2]; RT/75% RH, 8 weeks): 3.39%
- Appearance ([2]; RT/<5% RH, 4 weeks): beige-gray
- HPLC Sum of impurities ([2]; RT/<5% RH, 4 weeks): 3.42%
- Appearance ([2]; RT/<5% RH, 8 weeks): beige-gray
- HPLC Sum of impurities ([2]; RT/<5% RH, 8 weeks): 3.16%
- Appearance ([2]; Reference (1 week)): beige-gray
- HPLC Sum of impurities ([2]; Reference (1 week)): 3.14%
- sensitivity towards light (sum of impurities) ([2]; storage in 0.3 da ICH light conditions): showed a sensitivity towards light
- hygroscopic behavior ([3]; adsorption/desorption test): no hygroscopic behavior
- water adsorbed at high relative humidity ([3]; high relative humidity): up to 0.6%
- crystallinity during the adsorption/desorption test [3]: remained crystalline
- DSC Exotherm Max (° C.) ([4]; 0 days (reference)): 216.8 °C
- TGA <200° C. ([4]; 0 days (reference)): 0.9%
- App (appearance) [4, 5]: Beige-gray
- TGA <100° C. [4, 5]: 0.4%
- IR ([4]; six weeks open, 40° C./75% RH): ~Ref
- XRD ([4]; six weeks open, 40° C./75% RH): ~Ref
- IR ([4]; six weeks open, 50° C.): ~Ref
- XRD ([4]; six weeks open, 50° C.): ~Ref
- IR ([4]; six weeks open, RT/56% RH): ~Ref
- XRD ([4]; six weeks open, RT/56% RH): ~Ref
- IR ([4]; six weeks open, RT/75% RH): ~Ref
- XRD ([4]; six weeks open, RT/75% RH): ~Ref
- IR ([4]; six weeks open, RT/<5% RH): ~Ref
- XRD ([4]; six weeks open, RT/<5% RH): ~Ref
- crystallographic stability (conclusion) ([4]; six weeks open storage under the different conditions, hydrochloride): crystallographically stable
- DSC Exotherm Max (° C.) ([4]; six weeks open, 40° C./75% RH): 216.9 °C
- TGA <200° C. ([4]; six weeks open, 40° C./75% RH): 0.3%
- App (appearance) [4, 6]: Beige-gray
- TGA <100° C. [4, 6]: 1%
- DSC Exotherm Max (° C.) ([4]; six weeks open, 50° C.): 216.9 °C
- TGA <200° C. ([4]; six weeks open, 50° C.): 0.3%
- App (appearance) [4, 7]: Beige-gray
- TGA <100° C. [4, 7]: 0.5%
- DSC Exotherm Max (° C.) ([4]; six weeks open, RT/56% RH): 216.9 °C
- TGA <200° C. ([4]; six weeks open, RT/56% RH): 0.4%
- App (appearance) [4, 8]: Beige-gray
- TGA <100° C. [4, 8]: 0.5%
- DSC Exotherm Max (° C.) ([4]; six weeks open, RT/75% RH): 217.0 °C
- TGA <200° C. ([4]; six weeks open, RT/75% RH): 0.4%
- App (appearance) [4, 9]: Beige-gray
- TGA <100° C. [4, 9]: 0.9%
- DSC Exotherm Max (° C.) ([4]; six weeks open, RT/<5% RH): 216.7 °C
- TGA <200° C. ([4]; six weeks open, RT/<5% RH): 0.5%
- App (appearance) [4, 10]: Beige-gray
- TGA <100° C. [4, 10]: 0.8%
